From ChEMBL document CHEMBL1148924, “Marine sesquiterpenoids that inhibit the lyase activity of DNA polymerase beta” (J Nat Prod, 2004)
The source made the active and inactive calls. The rule behind the calls is not given here.

How the values were obtained:
DNA polymerase beta = DNA polymerase beta (Homo sapiens, UniProt P06746); assay: Inhibition of DNA polymerase beta lyase activity
[1] = biological target: T1, M-phase inducer phosphatase 2 (Homo sapiens) (UniProt P30305); assay: (§1) Inhibition of GST-fused human recombinant Cdc25B2 (275-539) catalytic domain
T1 sequence (whole entry): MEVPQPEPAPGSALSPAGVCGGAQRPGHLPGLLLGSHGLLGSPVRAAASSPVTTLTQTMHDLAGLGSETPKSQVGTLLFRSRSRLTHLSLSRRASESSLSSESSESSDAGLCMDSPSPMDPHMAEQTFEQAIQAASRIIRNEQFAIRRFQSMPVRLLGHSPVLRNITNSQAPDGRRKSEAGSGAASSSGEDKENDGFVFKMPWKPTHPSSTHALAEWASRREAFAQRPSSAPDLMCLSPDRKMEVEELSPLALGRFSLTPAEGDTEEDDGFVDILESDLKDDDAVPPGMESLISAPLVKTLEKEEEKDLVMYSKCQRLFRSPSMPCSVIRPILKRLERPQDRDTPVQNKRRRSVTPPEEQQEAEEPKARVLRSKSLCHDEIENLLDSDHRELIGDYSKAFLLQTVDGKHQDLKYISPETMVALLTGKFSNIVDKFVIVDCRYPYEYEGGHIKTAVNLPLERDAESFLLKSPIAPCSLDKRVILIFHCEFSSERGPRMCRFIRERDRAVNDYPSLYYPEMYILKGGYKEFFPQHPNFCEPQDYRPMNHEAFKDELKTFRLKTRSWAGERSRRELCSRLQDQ

A2780 = assay: Cytotoxicity against human A2780 cells; assay type: functional, cell-based
[2] = biological target: T2, M-phase inducer phosphatase 2 (Homo sapiens, UniProt P30305); assay: as §1
T2 sequence (P30305 whole entry): T1 sequence (whole entry)

SMILES | Activity (DNA polymerase beta) | Activity [1] | Activity (A2780) | IC50 (DNA polymerase beta) [µM] | IC50 [2] [µM] | IC50 (A2780) [µM]
C=C1CCC[C@H]2[C@](C)(Cc3cc(C(=O)OC)ccc3O)[C@@H](C)CC[C@]12C | inactive | inactive | inactive | – | – | –
C=C1CCC[C@H]2[C@](C)(CC3=C(O)C(=O)C=C(OC)C3=O)[C@@H](C)CC[C@]12C [ILIMAQUINONE] | – | – | – | 45.2 | 92 | 10.9
O=c1ccn([C@H]2C[C@H](O)[C@@H](CO)O2)c(=O)[nH]1 | inactive | inactive | inactive | – | – | –
C=C1CCC[C@H]2[C@](C)(Cc3cc(C(=O)OC)ccc3OCC=C(C)C)[C@@H](C)CC[C@]12C | inactive | inactive | inactive | – | – | –
